Test results reported in PMC11802874, “The hypolipidemic effect of MI-883, the combined CAR agonist/ PXR antagonist, in diet-induced hypercholesterolemia model” (Nature Communications, 2025).
Where “and” joins values, the source holds several entries; their conditions need not be identical. Identical values can stand only once.

Test system: HepaRG cells
Assay: RT-qPCR mRNA expression in differentiated HepaRG cells
[1] = single agent 5: MI-883 5, Rif (5 μM) alone

Excerpt: HepaRG cells from Biopredic (Rennes, France) were cultivated and differentiated on the 12-well plates. […] Several batches of HepaRG KO CAR (CAR Knockout HepaRG™ Cells, MTOX1012-1VL, RRID:CVCL_B6AA) and PXR Knockout HepaRG™ Cells, MTOX1011-1VL, RRID:CVCL_B6AS) cells have been obtained from Sigma-Aldrich/Merck (Darmstadt, Germany) and cultivated according to the provider’s protocols. […] Experiments with HepaRG KO PXR and HepaRG KO CAR cells have been performed in duplicates at least in two independent experiments.
RT-qPCR was used to examine gene expression in 2D and 3D PHH, HepaRG cells, or in mouse liver or intestine (ileum) samples as we have described before[60]–[62].
All qRT-qPCR experiments including Trizol reagent (Life Technologies) total RNA isolation, reverse-transcription using a random hexaprimer, and the MMLV Reverse Transcriptase Kit (ThermoFisher Scientific) we have described before^19. qPCR was performed using TaqMan Fast Advanced Master Mix with TaqMan probes (ThermoFisher Scientific). […] The delta-delta method was used for gene expression quantification normalized to at least two reference genes. Three technical replicates were used for each reaction considering the MIQE guidelines. Data are presented as fold induction to vehicle-treated cells/animals.

Structure (SMILES): NC(=O)c1cc(Cn2cc(-c3c(-c4ccc(Cl)cc4)nc4cc(F)ccn34)nn2)ccc1Cl [MI-883, 2-chloro-5-((4-(2-(4-chlorophenyl)-7-fluoroimidazo[1,2-a]pyridin-3-yl)-1H-1,2,3-triazol-1-yl)methyl)benzamide]
- PCSK9 expression relative to control (replicates) (MI-883 10 μM + Rif (5 μM)): 1.314 and 0.9884 and 1.015 and 0.8211
- HMGCR expression relative to control (replicates) (MI-883 20 μM): 1.186 and 1.442 and 1.1738
- HMGCS2 expression relative to control (replicates) (MI-883 20 μM): 0.7901 and 0.8336 and 1.102
- PCSK9 expression relative to control (replicates) (MI-883 20 μM): 0.9308 and 1.156 and 1.11
- HMGCR expression relative to control (replicates) (MI-883 20 μM + Rif (5 μM)): 0.8382 and 1.516 and 1.756
- HMGCS2 expression relative to control (replicates) (MI-883 20 μM + Rif (5 μM)): 1.0412 and 1.1415 and 0.9223
- PCSK9 expression relative to control (replicates) (MI-883 20 μM + Rif (5 μM)): 1.334 and 1.4007 and 1.046
- CYP7A1 mRNA fold (Fig. 3f,g sheet), replicates (MI-883 1): 0.5746 and 0.6713 and 0.8972 and 0.7445
- INSIG1 mRNA fold (Fig. 3f,g sheet), replicates (MI-883 1): 1.005 (2×) and 0.8339
- LDLR mRNA fold (Fig. 3f,g sheet), replicates (MI-883 1): 1.161 and 1.262 and 0.9041 and 0.8572
- SREBF1 mRNA fold (Fig. 3f,g sheet), replicates (MI-883 1): 0.7942 and 0.8996 and 0.7218
- SREBF2 mRNA fold (Fig. 3f,g sheet), replicates (MI-883 1): 0.6439 and 0.7635 and 0.7748 and 1.065 and 0.7449 and 1.037
- mRNA fold, Fig. 3b sheet, first block (CYP3A4), replicates (MI-883 1 (µM), 24 h): 0.8362 and 0.801 and 0.9683 and 1.172 and 0.7446
- mRNA fold, Fig. 3b sheet, second block (gene not given; CYP2B6), replicates (MI-883 1 (µM), 24 h): 2.928 and 2.816 and 2.017 and 3.044 and 1.065
- mRNA fold, Fig. 3b sheet, first block (CYP3A4), replicates (MI-883 1 + Rif (5 μM)): 1.353 and 3.215 and 5.541
- mRNA fold, Fig. 3b sheet, second block (CYP2B6), replicates (MI-883 1 + Rif (5 μM)): 2.0016 and 2.546 and 5.3
- CYP7A1 mRNA fold (Fig. 3f,g sheet), replicates (MI-883 5): 0.5588 and 0.4759 and 0.4175
- INSIG1 mRNA fold (Fig. 3f,g sheet), replicates (MI-883 5): 1.268 and 1.368 and 1.1831
- LDLR mRNA fold (Fig. 3f,g sheet), replicates (MI-883 5): 1.377 and 1.27 and 1.084
- SQLE mRNA fold (Fig. 3f,g sheet), replicates (MI-883 5): 1.181 (2×) and 1.026
- SREBF1 mRNA fold (Fig. 3f,g sheet), replicates (MI-883 5): 0.6652 and 0.6777 and 0.7568
- SREBF2 mRNA fold (Fig. 3f,g sheet), replicates (MI-883 5): 0.5404 and 1.004 and 0.7053
- mRNA fold, Fig. 3b sheet, first block (CYP3A4), replicates (MI-883 5 + Rif (5 μM)): 1.354 and 1.7483 and 1.162
- mRNA fold, Fig. 3b sheet, second block (CYP2B6), replicates (MI-883 5 + Rif (5 μM)): 2.182 and 1.817
- CYP7A1 mRNA fold (Fig. 3f,g sheet), replicates (MI-883 10): 0.4275 and 0.3155 and 0.5022 and 0.4393
- INSIG1 mRNA fold (Fig. 3f,g sheet), replicates (MI-883 10): 1.223 and 1.042 and 1.225 and 1.172
- LDLR mRNA fold (Fig. 3f,g sheet), replicates (MI-883 10): 1.481 and 1.183
- SQLE mRNA fold (Fig. 3f,g sheet), replicates (MI-883 10): 1.043 and 1.272 and 0.888 and 1.111 and 1.1255
- SREBF1 mRNA fold (Fig. 3f,g sheet), replicates (MI-883 10): 0.5595 and 0.8022 (2×) and 0.6597
- SREBF2 mRNA fold (Fig. 3f,g sheet), replicates (MI-883 10): 0.6518 and 0.837 and 1.166 and 1.224 and 0.9179 and 0.9421
- mRNA fold, Fig. 3b sheet, first block (CYP3A4), replicates (MI-883 10): 0.3642 and 0.6511 and 0.7047 and 0.8281 and 0.7972 and 0.5808
- mRNA fold, Fig. 3b sheet, second block (CYP2B6), replicates (MI-883 10): 2.037 and 2.07 and 1.475 and 2.671 and 1.239 and 0.7631
- mRNA fold, Fig. 3b sheet, first block (CYP3A4), replicates (MI-883 10 + Rif (5 μM)): 0.875 and 1.224 and 1.6089 and 0.7778
- mRNA fold, Fig. 3b sheet, second block (CYP2B6), replicates (MI-883 10 + Rif (5 μM)): 1.519 and 3.467 and 2.287 and 1.0661
- CYP7A1 mRNA fold (Fig. 3f,g sheet), replicates (MI-883 20): 0.3598 and 0.7856
- INSIG1 mRNA fold (Fig. 3f,g sheet), replicates (MI-883 20): 1.146 and 1.273
- LDLR mRNA fold (Fig. 3f,g sheet), replicates (MI-883 20): 1.442 and 1.216 and 1.519
- SQLE mRNA fold (Fig. 3f,g sheet), replicates (MI-883 20): 1.646 and 1.048
- SREBF1 mRNA fold (Fig. 3f,g sheet), replicates (MI-883 20): 0.7299 and 0.7553
- SREBF2 mRNA fold (Fig. 3f,g sheet), replicates (MI-883 20): 1.072 and 1.4 and 1.1431
- mRNA fold, Fig. 3b sheet, first block (CYP3A4), replicates (MI-883 20): 0.6466 and 0.6905 and 0.8398 and 0.439
- mRNA fold, Fig. 3b sheet, second block (CYP2B6), replicates (MI-883 20): 1.395 and 1.4687 and 2.208 and 1.5457
- mRNA fold, Fig. 3b sheet, first block (CYP3A4), replicates (MI-883 20 + Rif (5 μM)): 0.5897 and 1.016
- mRNA fold, Fig. 3b sheet, second block (CYP2B6), replicates (MI-883 20 + Rif (5 μM)): 0.9269 and 2.43 and 1.46
- CYP7A1 mRNA in HepaRG cells (MI-883: in the absence and presence of rifampicin): significant downregulation
- rifampicin induction of SQLE mRNA in HepaRG cells (MI-883 at 1 μM, SPA70): abrogated
- CYP2B6 mRNA, RT-qPCR, HepaRG (Fig. 1f), replicates (Phenobarbital 500 μM, CITCO 1 μM, MI 883 1 μM, ctrl = 1): 4.75 and 4.15 and 4.1
- ABCC4 and UGT1A1 genes in HepaRG cells (Supplementary Fig. 10): upregulated
- mRNA fold, Fig. 3b sheet, first block (CYP3A4), replicates [1]: 0.6927 and 0.6641 and 0.6779
- mRNA fold, Fig. 3b sheet, second block (CYP2B6), replicates [1]: 3.953 and 2.541 and 3.216
